Patent US9382188B2, “Aromatic ring compound” (TAKEDA PHARMACEUTICAL COMPANY LIMITED, priority 2012, dated 2016)

Biological target: T1, human GPR40 (Homo sapiens, UniProt O14842)
T1 construct: expressed in transfected cells
Experiment: Evaluation of human GPR40 agonist activity with increase in intracellular Ca2+ concentration as an index (FLIPR Tetra)
Type: cell-based
Conditions: test compound 1 μM; CHO(dhfr-) cells stably expressing human GPR40; 100% = activity of 1 μM WO2009/048527 Example 99.2, 0% = DMSO
In short: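 CHO(dhfr-) cells stably expressing human GPR40, loaded with Calcium 5 dye in HEPES/HBSS buffer with 0.2% fatty acid-free BSA and probenecid, 1 h at 37° C. Test compound added at 1 μM final; fluorescence Ca2+ rise scaled to a reference agonist at 1 μM (100%) and DMSO (0%).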

T1 sequence (O14842 whole entry): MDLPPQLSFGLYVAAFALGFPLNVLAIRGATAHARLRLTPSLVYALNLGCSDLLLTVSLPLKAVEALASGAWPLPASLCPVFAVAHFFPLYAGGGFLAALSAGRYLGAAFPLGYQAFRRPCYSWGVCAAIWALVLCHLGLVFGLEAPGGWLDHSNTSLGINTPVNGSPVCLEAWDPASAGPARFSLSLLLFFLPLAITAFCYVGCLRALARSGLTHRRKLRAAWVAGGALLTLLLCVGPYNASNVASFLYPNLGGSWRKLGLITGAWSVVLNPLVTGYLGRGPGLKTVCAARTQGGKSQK

Row | activation at 1 µM | SMILES
1 | 111% | CCC(CC)(CC)Cc1cc(OCc2cccc(C(CC(=O)O)C3CC3)c2)ccc1-c1cc(OC)ccc1F (stereo not shown) [Example 111, 3-cyclopropyl-3-(3-(((2-(2,2-diethylbutyl)-2′-fluoro-5′-methoxybiphenyl-4-yl)oxy)methyl)phenyl)propanoic acid]
2 | 108% | CCC(C)(CC)Cc1cc(OCc2cccc(C(CC(=O)O)C3CC3)c2)ccc1-c1cc(OC)ccc1F (stereo not shown) [Example 112, 3-cyclopropyl-3-(3-(((2-(2-ethyl-2-methylbutyl)-2′-fluoro-5′-methoxybiphenyl-4-yl)oxy)methyl)phenyl)propanoic acid]
3 | 102% | COc1ccc(F)c(-c2ccc(OCc3cccc(C(CC(=O)O)C4CC4)c3)cc2CCCC(C)(C)C)c1 (stereo not shown) [Example 113, 3-cyclopropyl-3-(3-(((2-(4,4-dimethylpentyl)-2′-fluoro-5′-methoxy-[1,1′-biphenyl]-4-yl)oxy)methyl)phenyl)propanoic acid]
4 | 103% | COc1ccc(F)c(-c2ccc(OCc3cccc(C(CC(=O)O)C4CC4)c3)cc2COCC(C)(C)C)c1 (stereo not shown) [Example 114, 3-cyclopropyl-3-(3-(((2′-fluoro-5′-methoxy-2-((neopentyloxy)methyl)-[1,1′-biphenyl]-4-yl)oxy)methyl)phenyl)propanoic acid]
